# Experimental data as given in ChEMBL document CHEMBL3286118, “Synthesis and in vitro antitumor activity of novel 2-alkyl-5-methoxycarbonyl-11-methyl-6H-pyrido[4,3-b]carbazol-2-ium and 2-alkylellipticin-2-ium chloride derivatives” (Eur J Med Chem, 2014).
# Assay: Cytotoxicity against human HeLaS3 cells assessed as cell viability after 24 to 72 hrs by MTT assay
# Type: functional, cell-based
# Settings: HeLa S3
row,Structure (SMILES),IC50
1,Cc1c2cc[n+](CCOCCN)cc2c(C)c2c1[nH]c1ccc(O)cc12,17.7 µM
2,Cc1c2c[n+](CCOCCNC(=O)N(C)N=O)ccc2c(C)c2c1c1cc(O)ccc1n2C,18.4 µM
3,Cc1c2c[n+](CCCCCN)ccc2c(C)c2c1c1cc(O)ccc1n2C,19.3 µM
4,CNC(=O)NCCC[n+]1ccc2c(C(=O)OC)c3[nH]c4ccccc4c3c(C)c2c1,24 µM
5,Cc1c2c[n+](CCOCCN)ccc2c(C)c2c1c1cc(O)ccc1n2C,17.9 µM
6,Cc1c2cc[n+](CCOCCN)cc2c(C)c2c1[nH]c1ccccc12,27.8 µM
7,CNC(=O)NCCCCC[n+]1ccc2c(C)c3c(c(C)c2c1)c1cc(O)ccc1n3C,32.5 µM
8,CNC(=O)NCCOCC[n+]1ccc2c(C)c3c(c(C)c2c1)c1cc(O)ccc1n3C,6.2 µM
9,CNC(=O)NCCOCC[n+]1ccc2c(C)c3[nH]c4ccc(O)cc4c3c(C)c2c1,29.4 µM
10,COC(=O)c1c2cc[n+](CCN)cc2c(C)c2c1[nH]c1ccccc12,5.8 µM
11,CNC(=O)NCC[n+]1ccc2c(C(=O)OC)c3[nH]c4ccccc4c3c(C)c2c1,6.6 µM
12,Cc1c2ccncc2c(C)c2c1[nH]c1ccccc12 [ELLIPTECINE],2.1 µM
13,COC(=O)c1c2cc[n+](CCNC(=O)N(C)N=O)cc2c(C)c2c1[nH]c1ccccc12,15 µM
14,COC(=O)c1c2cc[n+](CCOCCN)cc2c(C)c2c1[nH]c1ccccc12,41.3 µM
15,COC(=O)c1c2cc[n+](CCCN)cc2c(C)c2c1[nH]c1ccccc12,2.5 µM
16,COC(=O)c1c2cc[n+](CCOCCNC(=O)N(C)N=O)cc2c(C)c2c1[nH]c1ccccc12,51.9 µM
17,Cc1c2cc[n+](CCOCCNC(=O)N(C)N=O)cc2c(C)c2c1[nH]c1ccc(O)cc12,60 µM
18,Cc1c2cc[n+](C)cc2c(C)c2c1[nH]c1ccccc12,2.9 µM
19,COC(=O)c1c2cc[n+](CCCNC(=O)N(C)N=O)cc2c(C)c2c1[nH]c1ccccc12,1.3 µM
20,CNC(=O)NCCOCC[n+]1ccc2c(C)c3[nH]c4ccccc4c3c(C)c2c1,75.3 µM
21,CN(N=O)C(N)=O [N-METHYL-N-NITROSUREA],> 100 µM
